# Data as given in patent US20100120798A1, “SUBSTITUTED PIPERIDINES CONTAINING A HETEROARYLAMIDE OR HETEROARYLPHENYL MOIETY” (ASTEX THERAPEUTICS LIMITED, priority 2006, published 2010).
# Where a name gives a salt, the structure may show the parent alone.
# Experiment: In vitro MDA-MB-468 human breast adenocarcinoma GSK-3 phosphorylation assay
# Assay type: cell-based
# Details: mean IC50, MDA-MB-468 cells, 2 hours with compound, phospho-GSK-3β
# From the text: This assay determines the ability of test compounds to inhibit phosphorylation of Serine-9 residue in Glycogen Synthase Kinase-3beta (GSK-3β) as a surrogate marker of cellular PKB (Akt) activity, as assessed using Acumen Explorer Fluorescent Plate-Reader technology. A MDA-MB-468 human breast adenocarcinoma cell line (LGC Promochem, Teddington, Middlesex, UK, Catalogue No. HTB-132) was routinely maintained in Dulbecco's modified Eagle's growth medium (DMEM; Invitrogen Limited, Paisley, UK Catalogue No. 11966-025) containing 10% heat-inactivated foetal calf serum (FCS; Sigma, Poole, Dorset, UK, Catalogue No. F0392) and 1% L-glutamine (Gibco, Catalogue No. 25030-024) at 37° C. with 5% CO2 up to a confluency of 70-90%.
# For the phosphorylation assay, the cells were detached from the culture flask using Trypsin-EDTA (Invitrogen Limited, Catalogue No. 25300-062) and seeded into the wells of a black transparent-bottom Corning Costar Polystyrene 96 well plate (Fisher Scientific UK, Loughborough, Leicestershire, UK; Catalogue No. 3904 and DPS-130-020K) at a density of 5000 cells per well in 100 μl of complete growth media. The cells were incubated overnight at 37° C. with 5% CO2 to allow them to adhere.
# On day 2, the cells were treated with test compounds and incubated for 2 hours at 37° C. with 5% CO2. Test compounds were prepared as 10 mM stock solutions in DMSO and dosed directly to required concentration into test wells using non-contact (acoustic dispensing of multiple 2.5 nl droplets directly into assay wells) ECHO dosing technology (Labcyte Inc. Sunnyvale, Calif., USA). Each plate contained control wells without test compound.
# 20 μl of fixing buffer (Phosphate Buffered Saline (PBS) containing 10% formaldehyde; Sigma; Catalogue No. F1635) was then added to each well to give a final well concentration 1.6%. Plates were then incubated for 30 minutes at room temperature prior to the fixative being removed. Each well was washed once with 250 μl of PBS and then 50 μl PBS added to each well. PBS was then aspirated and cells permeabilised and blocked by incubating each well with 50 μl of permeabilisation/blocking buffer (PBS containing 0.5% Tween 20 (Sigma; Catalogue No. P5927) and 5% Marvel Milk Powder (Andrews Pharmacy Ltd, Macclesfield, Cheshire, UK; Catalogue No. APC100199)) for 1 hour at room temperature prior to staining.
# Following removal of Perm/Block buffer, 50 μl of primary anti-phospho-GSK-3β antibody (Cell Signalling Technology (New England Biolabs (Uk) Ltd.), Hitchin, Hertfordshire, UK; Catalogue No. 9336 diluted 1:400 in Blocking buffer (PBS containing 5% Marvel and 0.05% Tween/Polysorbate 20) was added to each well and incubated overnight at 4° C.
# Each well was washed three times in 250 μl of wash buffer (PBS containing 0.05% polysorbate 20), and cells incubated for 1 hour at room temperature with 50 μl of secondary fluorescently-labelled anti-rabbit Alexa Fluor 488 antibody (Molecular Probes, Invitrogen Limited, Catalogue No. A11008) diluted 1:750 in blocking buffer. Plates were washed three times in 250 μl of wash buffer and stored containing 50 μl of PBS at 4° C. until required.
# Plates were analysed using an Acumen Explorer Plate-reader to quantify level of fluorescent signal that represents quantity of phosphorylated-GSK-3β.
# IC50 calculation—IC50 is the concentration of compound required to give 50% effect over the range of activity affected by the compound, between maximum (no compound) and minimum (excess level of compound) response control data. IC50 values were determined by fitting background corrected, dose response assay data to a 4 parameter logistic curve fit equation model with the minimum response set to zero. This was done using an in-house developed algorithm within the Origin graphing software package (OriginLab Corporation, Northampton, Mass., USA). […]
row,SMILES,IC50 [nM]
1,"Cc1sccc1-c1cccc(C2(CN)CCN(c3ncnc4[nH]cnc34)CC2)c1 [Example 7, C-[4-[3-(2-Methyl-thiophen-3-yl)-phenyl]-1-(9H-purin-6-yl)-piperidin-4-yl]-methylamine]",< 8
2,"NCC1(c2cccc(-c3cncc(F)c3)c2)CCN(c2ncnc3[nH]cnc23)CC1 [Example 8, C-[4-[3-(5-Fluoro-pyridin-3-yl)-phenyl]-1-(9H-purin-6-yl)-piperidin-4-yl]-methylamine]",< 13
3,"CNCC1(c2cccc(-c3cnn(C)c3)c2)CCN(c2ncnc3[nH]cnc23)CC1 [Example 9, Methyl-[4-[3-(1-methyl-1H-pyrazol-4-yl)-phenyl]-1-(9H-purin-6-yl)-piperidin-4-ylmethyl]-amine]",400
4,"Cn1cc(-c2cccc(C3(CO)CCN(c4ncnc5[nH]cnc45)CC3)c2)cn1 [Example 10, [4-[3-(1-Methyl-1H-pyrazol-4-yl)-phenyl]-1-(9H-purin-6-yl)-piperidin-4-yl]-methanol]",5100
5,"NC1(C(=O)NCc2ccc(C(F)(F)F)nc2)CCN(c2ncnc3[nH]ccc23)CC1 [Example 14, 4-amino-1-(7H-pyrrolo[2,3-d]pyrimidin-4-yl)-piperidine-4-carboxylic acid (6-trifluoromethyl-pyridin-3-ylmethyl)-amide hydrochloride]",1400
6,"NCC1(C(=O)NCc2ccc(Br)s2)CCN(c2ncnc3[nH]ccc23)CC1 [Example 21, 4-(aminomethyl)-N-((5-bromothiophen-2-yl)methyl)-1-(7H-pyrrolo[2,3-d]pyrimidin-4-yl)piperidine-4-carboxamide]",< 5.9
7,"NCC1(C(=O)NCc2ccc(Cl)s2)CCN(c2ncnc3[nH]ccc23)CC1 [Example 22, 4-(Aminomethyl)-N-((5-chlorothiophen-2-yl)methyl)-1-(7H-pyrrolo[2,3-]pyrimidin-4-yl)piperidine-4-carboxamide]",16
8,"Cc1ccc(CNC(=O)C2(CN)CCN(c3ncnc4[nH]ccc34)CC2)s1 [Example 23, 4-(Aminomethyl)-N-((5-methylthiophen-2-yl)methyl)-1-(7H-pyrrolo[2,3-d]pyrimidin-4-yl)piperidine-4-carboxamide]",43
9,"NCC1(C(=O)NCc2cc(Br)no2)CCN(c2ncnc3[nH]ccc23)CC1 [Example 24, 4-(Aminomethyl)-N-((3-bromoisoxazol-5-yl)methyl)-1-(7H-pyrrolo[2,3-d]pyrimidin-4-yl)piperidine-4-carboxamide]",8.6
10,"NCC1(C(=O)NCc2cc3ccccc3[nH]2)CCN(c2ncnc3[nH]nc(Br)c23)CC1 [Example 25, N-((1H-Indol-2-yl)methyl)-4-(aminomethyl)-1-(3-bromo-1H-pyrazolo[3,4-d]pyrimidin-4-yl)piperidine-4-carboxamide]",10
11,"NCC1(C(=O)NCc2cc3ccccc3[nH]2)CCN(c2ncnc3[nH]ccc23)CC1 [Example 26, N-((1H-Indol-2-yl)methyl)-4-(aminomethyl)-1-(7H-pyrrolo[2,3-d]pyrimidin-4-yl)piperidine-4-carboxamide]",23
12,"NCC1(C(=O)NCc2ccc(C(F)(F)F)nc2)CCN(c2ncnc3[nH]ccc23)CC1 [Example 27, 4-(Aminomethyl)-1-(7H-pyrrolo[2,3-d]pyrimidin-4-yl)-N-((6-(trifluoromethyl)pyridin-3-yl)methyl)piperidine-4-carboxamide]",110
13,"Cn1cc(-c2cccc(C3(CN)CCN(c4ncnc5[nH]cc(Br)c45)CC3)c2)cn1 [Example 28, (1-(5-bromo-7H-pyrrolo[2,3-d]pyrimidin-4-yl)-4-(3-(1-methyl-1H-pyrazol-4-yl)phenyl)piperidin-4-yl)methanamine]",7.2
14,"Cn1cc(-c2cccc(C3(CN)CCN(c4ncnc5[nH]cc(Cl)c45)CC3)c2)cn1 [Example 29, (1-(5-Chloro-7H-pyrrolo[2,3-d]pyrimidin-4-yl)-4-(3-(1-methyl-1H-pyrazol-4-yl)phenyl)piperidin-4-yl)methanamine]",11
15,"Cc1c[nH]c2ncnc(N3CCC(CN)(c4cccc(-c5cnn(C)c5)c4)CC3)c12 [Example 30, (4-(3-(1-methyl-1H-pyrazol-4-yl)phenyl)-1-(5-methyl-7H-pyrrolo[2,3-d]pyrimidin-4-yl)piperidin-4-yl)methanamine]",27
16,"Cn1cc(-c2cccc(C3(CN)CCN(c4ncnc5[nH]nc(Br)c45)CC3)c2)cn1 [Example 31, (1-(3-Bromo-1H-pyrazolo[3,4-d]pyrimidin-4-yl)-4-(3-(1-methyl-1H-pyrazol-4-yl)phenyl)piperidin-4-yl)methanamine]",22
17,"CN(C)CC1(c2cccc(-c3cnn(C)c3)c2)CCN(c2ncnc3[nH]cnc23)CC1 [Example 32, N,N-dimethyl-1-(4-(3-(1-methyl-1H-pyrazol-4-yl)phenyl)-1-(9H-purin-6-yl)piperidin-4-yl)methanamine]",290
18,"Cn1cc(-c2cccc(C3(CN4CCCC4)CCN(c4ncnc5[nH]cnc45)CC3)c2)cn1 [Example 33, 6-(4-(3-(1-methyl-1H-pyrazol-4-yl)phenyl)-4-(pyrrolidin-1-ylmethyl)piperidin-1-yl)-9H-purine]",740
19,"Cn1cc(-c2cccc(C3(CCCN)CCN(c4ncnc5[nH]cnc45)CC3)c2)cn1 [Example 34, 3-(4-(3-(1-methyl-1H-pyrazol-4-yl)phenyl)-1-(9H-purin-6-yl)piperidin-4-yl)propan-1-amine]",> 2000
20,"Cn1cc(-c2cccc(C3(CNC(=O)CN)CCN(c4ncnc5[nH]cnc45)CC3)c2)cn1 [Example 35, 2-amino-N-((4-(3-(1-methyl-1H-pyrazol-4-yl)phenyl)-1-(9H-purin-6-yl)piperidin-4-yl)methyl)acetamide]",1300
21,"CN(C)CC(=O)NCC1(c2cccc(-c3cnn(C)c3)c2)CCN(c2ncnc3[nH]cnc23)CC1 [Example 36, 2-(dimethylamino)-N-((4-(3-(1-methyl-1H-pyrazol-4-yl)phenyl)-1-(9H-purin-6-yl)piperidin-4-yl)methyl)acetamide]",2800
22,"Cn1cc(-c2cccc(C3(C(N)=O)CCN(c4ncnc5[nH]cnc45)CC3)c2)cn1 [Example 37, 4-[3-(1-methylpyrazol-4-yl)phenyl]-1-(9H-purin-6-yl)piperidine-4-carboxamide]",> 30000
23,"NC1(C(=O)NCc2ccc(Cl)s2)CCN(c2ncnc3[nH]ccc23)CC1 [Example 39, 4-Amino-N-[(5-chlorothiophen-2-yl)methyl]-1-(7H-pyrrolo[2,3-d]pyrimidin-4-yl)piperidine-4-carboxamide]",300
24,"Cc1csc(CNC(=O)C2(N)CCN(c3ncnc4[nH]ccc34)CC2)n1 [Example 40, 4-Amino-N-[(4-methyl-1,3-thiazol-2-yl)methyl]-1-(7H-pyrrolo[2,3-d]pyrimidin-4-yl)piperidine-4-carboxamide]",3400
25,"NC1(C(=O)NCc2cnc3ccccc3c2)CCN(c2ncnc3[nH]ccc23)CC1 [Example 41, 4-Amino-1-(7H-pyrrolo[2,3-d]pyrimidin-4-yl)-N-(quinolin-3-ylmethyl)piperidine-4-carboxamide]",4100
26,"NC1(C(=O)NCc2csc(-c3ccccc3)n2)CCN(c2ncnc3[nH]ccc23)CC1 [Example 42, 4-Amino-N-[(2-phenyl-1,3-thiazol-4-yl)methyl]-1-(7H-pyrrolo[2,3-d]pyrimidin-4-yl)piperidine-4-carboxamide]",7100
27,"NC1(C(=O)NCc2ccncc2)CCN(c2ncnc3[nH]ccc23)CC1 [Example 43, 4-Amino-N-(pyridin-4-ylmethyl)-1-(7H-pyrrolo[2,3-d]pyrimidin-4-yl)piperidine-4-carboxamide]",> 19000
